Results published in US7465804B2, “Compounds, pharmaceutical compositions and methods for their use in treating metabolic disorders” (Amgen Inc., priority 2005, dated 2008).

Tests used:
human GPR40 = target: T1, human GPR40 (Homo sapiens, UniProt O14842); experiment: Cell based aequorin assay using human GPR40; conditions: CHO cells stably transfected with GPR40 and aequorin; 0.01% HSA; aequorin luminescence; read-out: Relative EC50
T1 construct: host or cells: CHO cells
Protocol: Cell-based aequorin assays were employed to characterize the modulatory activity of compounds on the GPR40 signaling pathway. In an exemplary assay, CHO cells were stably transfected with both GPR40 and Aequorin (Euroscreen). Cells were detached from the tissue culture dish with 2 mL of trypsin (0.25% (w/v)). Trypsinization was halted with 28 mL of Hanks Buffered Salt Solution containing 20 mM Hepes (H/HBSS) and 0.01% fatty acid-free human serum albumin (HSA). Coelantrazine was added to 1 ug/mL, and the cells were incubated for 2 hours at room temperature. Compounds were dissolved in DMSO for preparation of 10 mM stock solutions. Compounds were diluted in H/HBSS containing either 0.01% HSA. Serial dilutions of the test compounds were prepared to determine dose response.
Aequorin luminescence measurements were made using an EG&G Berthold 96-well luminometer, and the response was measured over a 20 second interval after cells and compounds were mixed. The maximum relative light units was plotted to determine dose response. The EC50 (effective concentration to reach 50% maximal response) was determined from the dose response plot.
Table 1 presents representative data (EC50 values) obtained for exemplary compounds of the invention for the relative activation of human GPR40. […]

islet cells = experiment: Insulin secretion assay in human islet cells; format: cell-based; conditions: human islet cells from cadaveric donors; KRBH with 11.2 mM glucose; insulin by SPA; read-out: EC50, stimulation of insulin secretion from islet cells
Protocol: Human islets were isolated from cadaveric donors. Islets were treated with trypsin (0.25% (w/v) and cells were seeded in 96-well plates containing 3,000 cells per well. Cells were cultured in Roswell Park Memorial Institute (RMPI) media containing 10% fetal bovine serum.
For determination of insulin secretion, media was removed from islet cells and replaced with Krebs-Ringer bicarbonate buffer containing 10 mM HEPES (KRBH) and 2 mM glucose. After one hour incubation, media was replaced with KRBH conaining 11.2 mM glucose and test compounds. Insulin released into the medium from the islet cells was measured using scintillation proximity assay (SPA).

T1 sequence (O14842 whole entry): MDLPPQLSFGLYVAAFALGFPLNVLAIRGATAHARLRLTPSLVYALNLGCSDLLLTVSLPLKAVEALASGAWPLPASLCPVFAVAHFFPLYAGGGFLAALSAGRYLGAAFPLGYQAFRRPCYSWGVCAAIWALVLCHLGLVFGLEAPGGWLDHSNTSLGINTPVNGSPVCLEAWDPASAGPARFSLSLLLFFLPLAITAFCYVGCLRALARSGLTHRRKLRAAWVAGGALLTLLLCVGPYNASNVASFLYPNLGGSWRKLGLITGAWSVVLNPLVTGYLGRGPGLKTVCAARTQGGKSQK

Row | SMILES | EC50 (human GPR40) [nM] | EC50 (islet cells) [nM]
1 | CCCCOc1ccc(C)cc1-c1ccc(COc2ccc([C@H](CC(=O)O)C(=O)N(C)C)cc2)cc1 | 10 to 100 | 
2 | Cc1nc(-c2ccc(C(F)(F)F)cc2)sc1COc1ccc([C@H](CC(=O)O)C(=O)N(C)C)cc1 | 10 to 100 | 
3 | Cn1ccnc1C(CC(=O)O)c1ccc(OCc2cccc(-c3ccc(C(F)(F)F)cc3)c2)cc1 (centres unmarked) | 100 to 1000 | 
4 | CCCCOc1ccc(C)cc1-c1ccc(COc2ccc([C@H](CC(=O)O)c3nccn3C)cc2)cc1 | 100 to 1000 | 
5 | Cn1ccnc1C(CC(=O)O)c1ccc(OCc2cccc(Oc3ccccc3)c2)cc1 (centres unmarked) | 100 to 1000 | 
6 | Cc1nc(-c2ccc(C(F)(F)F)cc2)sc1COc1ccc([C@H](CC(=O)O)c2nccn2C)cc1 | 100 to 1000 | 
7 | CCOc1cccc(-c2ccc(COc3ccc([C@H](CC(=O)O)c4nccn4C)cc3)cc2)c1 | 100 to 1000 | 
8 | Cc1c(Cl)cccc1-c1cccc(COc2ccc([C@H](CC(=O)O)c3nccn3C)cc2)c1 | 10 to 100 | 
9 | Cc1ccc(Cl)cc1-c1cccc(COc2ccc([C@H](CC(=O)O)c3nccn3C)cc2)c1 | 10 to 100 | 
10 | O=C(O)CC(c1ccc(OCc2cccc(-c3ccc(C(F)(F)F)cc3)c2)cc1)c1ncco1 (centres unmarked) | 10 to 100 | 
11 | CCCCOc1ccc(C)cc1-c1ccc(COc2ccc(C(CC(=O)O)c3ncco3)cc2)cc1 (centres unmarked) | 10 to 100 | 
12 | CCCCOc1ccc(C)cc1-c1ccc(COc2ccc([C@@H](CC(=O)O)c3ncco3)cc2)cc1 | 100 to 1000 | 
13 | Cc1nc(-c2ccc(C(F)(F)F)cc2)sc1COc1ccc(C(CC(=O)O)c2ncco2)cc1 (centres unmarked) | 10 to 100 | 
14 | CCOc1cccc(-c2ccc(COc3ccc(C(CC(=O)O)c4ncco4)cc3)cc2)c1 (centres unmarked) | 1000 to 10000 | 
15 | Cc1cc(Cl)ccc1-c1cccc(COc2ccc(C(CC(=O)O)c3ncco3)cc2)c1 (centres unmarked) | 100 to 1000 | 
16 | O=C(O)CC(c1ccc(OCc2cccc(Oc3ccccc3)c2)cc1)c1ncco1 (centres unmarked) | 100 to 1000 | 
17 | Cc1cc(Cl)ccc1-c1cccc(COc2ccc([C@H](CC(=O)O)c3ncco3)cc2)c1 | 10 to 100 | 

Row | SMILES | EC50 (human GPR40) [nM] | EC50 (islet cells) [nM]
18 | Cc1cc(Cl)ccc1-c1cccc(COc2ccc([C@@H](CC(=O)O)c3ncco3)cc2)c1 | 1000 to 10000 | 
19 | CCCCOc1ccc(C)cc1-c1ccc(COc2ccc([C@H](CC(=O)O)c3ncnn3C)cc2)cc1 | 10 to 100 | 
20 | Cc1nc(-c2ccc(C(F)(F)F)cc2)sc1COc1ccc([C@H](CC(=O)O)c2ncnn2C)cc1 | 100 to 1000 | 
21 | CCOc1cccc(-c2ccc(COc3ccc([C@H](CC(=O)O)c4ncnn4C)cc3)cc2)c1 | 100 to 1000 | 
22 | CCCCOc1ccc(C)cc1-c1ccc(COc2ccc([C@H](CC(=O)O)c3nnnn3C)cc2)cc1 | 10 to 100 | 
23 | Cc1nc(-c2ccc(C(F)(F)F)cc2)sc1COc1ccc([C@H](CC(=O)O)c2nnnn2C)cc1 | 10 to 100 | 
24 | Cc1c(Cl)cccc1-c1cccc(COc2ccc([C@H](CC(=O)O)c3nnnn3C)cc2)c1 | < 10 | 
25 | Cc1ccc(Cl)cc1-c1cccc(COc2ccc([C@H](CC(=O)O)c3nnnn3C)cc2)c1 | 10 to 100 | 
26 | Cc1cc(Cl)ccc1-c1cccc(COc2ccc([C@H](CC(=O)O)C(=O)N(C)C)cc2)c1 [Example 3, (S)-3-[4-(4′-chloro-2′-methyl-biphenyl-3-ylmethoxy)-phenyl]-N,N-dimethyl-succinamic acid] | 10 to 100 | 
27 | Cc1ccc(-c2nc(C)c(COc3ccc([C@H](CC(=O)O)C(=O)N(C)C)cc3)s2)cc1 [Example 4, (S)-4-(dimethylamino)-3-(4-((4-methyl-2-p-tolylthiazol-5-yl)methoxy)phenyl)-4-oxobutanoic acid] | 10 to 100 | < 1000
28 | Cn1ncnc1[C@@H](CC(=O)O)c1ccc(OCc2cccc(-c3ccc(C(F)(F)F)cc3)c2)cc1 [Example 5, (S)-3-(2-methyl-2H-1,2,4-triazol-3-yl)-3-[4-(4′-trifluoromethyl-biphenyl-3-ylmethoxy)-phenyl]-propionic acid] | 100 to 1000 | 
29 | Cc1cc(Cl)ccc1-c1cccc(COc2ccc([C@H](CC(=O)O)c3ncnn3C)cc2)c1 [Example 6, (S)-3-[4-(4′-chloro-2′-methyl-biphenyl-3-ylmethoxy)-phenyl]-3-(2-methyl-2H-1,2,4-triazol-3-yl)-propionic acid] | 10 to 100 | 
30 | Cn1nnnc1[C@@H](CC(=O)O)c1ccc(OCc2cccc(-c3ccc(C(F)(F)F)cc3)c2)cc1 [Example 7, (S)-3-(1-methyl-1H-tetrazol-5-yl)-3-[4-(4′-trifluoromethyl-biphenyl-3-ylmethoxy)-phenyl]-propionic acid] | 10 to 100 | 
31 | Cc1cc(Cl)ccc1-c1cccc(COc2ccc([C@H](CC(=O)O)c3nnnn3C)cc2)c1 [Example 8, (S)-3-[4-(4′-chloro-2′-methyl-biphenyl-3-ylmethoxy)-phenyl]-3-(1-methyl-1H-tetrazol-5-yl)-propionic acid] | 10 to 100 | 
32 | Cc1cc(Cl)ccc1-c1cccc(COc2ccc([C@H](CC(=O)O)c3nccn3C)cc2)c1 [Example 9, (S)-3-[4-(4′-chloro-2′-methyl-biphenyl-3-ylmethoxy)-phenyl]-3-(1-methyl-1H-imidazol-2-yl)-propionic acid] | 10 to 100 | < 1000
33 | CCCCOc1ccc(C)cc1-c1ccc(COc2ccc([C@H](CC(=O)O)c3ncco3)cc2)cc1 [Example 10, (S)-3-[4-(5′-methyl-2′-butoxybiphenylmethoxy)phenyl]-3-(oxazol-2-yl)propanoic acid] | 10 to 100 | 
